# Results: patent US12440541B2, “Methods for expanding and activating γσ T cells for the treatment of cancer and related malignancies” (priority 2017, dated 2025)
# System: γδ T cells
# Assay: γδ T cell expansion in defined medium
# Assay type: cell-based, human
# Conditions: defined medium with IL-2, IL-15, Amphotericin B
structure (smiles),measurement,setting,value
"O=P(O)(O)C(O)(Cn1ccnc1)P(=O)(O)O [Zoledronate, Zoledronic acid]",fold increase in absolute number of γδ T cells,"Donor 20, Day 0 to Day 17","3,350 fold"
same,fold increase in absolute number of γδ T cells,"Donor 20, Day 0 to Day 22","11,060 fold"
same,fold increase in absolute number of γδ T cells,"Donor 20, Day 0 to Day 29","31,666 fold"
same,fold increase in absolute number of γδ T cells,"Donor 21, Day 0 to Day 17","4,633 fold"
same,fold increase in absolute number of γδ T cells,"Donor 21, Day 0 to Day 22","12,320 fold"
same,fold increase in absolute number of γδ T cells,"Donor 21, Day 0 to Day 29","32,833 fold"
